Tests used:
[1] = tested on: human thrombin; experiment: test b) C2 (PT) against human thrombin; type: biochemical; settings: PT = prothrombin time
Experimental: b) Measurement of Thrombin Inhibition
The procedure of method a) is repeated except that human thrombin (0.005 Units/ml) and the chromogenic substrate S-2238 (KabiVitrum AB, 7 μM) are employed.
c) Measurement of Anticoagulant Activity
An in vitro assay whereby human, rat or rabbit venous blood is collected and added directly to a sodium citrate solution (3.2 g/100 ml, 9 parts blood to 1 part citrate solution). Blood plasma is prepared by centrifugation (1000 g, 15 minutes) and stored at 2-4° C. Conventional prothrombin time (PT) tests are carried out in the presence of various concentrations of a test compound and the concentration of test compound required to double the clotting time, hereinafter referred to as CT2, is determined. In the PT test, the test compound and blood plasma are incubated at 37° C. for 10 minutes. Tissue thromboplastin with calcium (Sigma Limited, Poole, England) is added and fibrin formation and the time required for a clot to form are determined.

SMILES	melting point	C2 (PT) against human thrombin [1]
O=C(c1ccc(-c2ccncc2)cc1)N1CCN(S(=O)(=O)c2cc3ccc(Cl)cc3[nH]2)CC1 [Example 7, 1-(6-chloroindol-2-ylsulphonyl)-4-[4-(4-pyridyl)benzoyl]piperazine]	231 to 234 °C	
O=C(c1ccc(-n2ccnc2)cc1)N1CCN(S(=O)(=O)c2cc3cc(Cl)ccc3[nH]2)CC1 [Example 6, 1-(5-Chloroindol-2-ylsulphonyl)-4-[4-(1-imidazolyl)benzoyl]piperazine]	155 to 165 °C	
O=C(c1ccc(-c2ccnnc2)cc1)N1CCN(S(=O)(=O)c2cc3cc(Cl)ccc3[nH]2)CC1 [Example 5, 1-(5-Chloroindol-2-ylsulphonyl)-4-[4-(4-pyridazinyl)benzoyl]piperazine]	170 to 172 °C	
O=C(c1ccc(-c2ccncc2)cc1)N1CCN(S(=O)(=O)c2cc3cc(Cl)ccc3o2)CC1 [Example 1, 1-(5-Chlorobenzo[b]furan-2-ylsulphonyl)-4-[4-(4-pyridyl)benzoyl]piperazine]		15 µM
O=C(c1ccc(-c2ccncc2)cc1)N1CCN(S(=O)(=O)c2nc3ccc(Cl)cc3[nH]2)CC1 [Example 8, 1-(5-chlorobenzimidazol-2-ylsulphonyl)-4-[4-(4-pyridyl)benzoyl]piperazine]	242 to 244 °C	
O=C(c1ccc(-c2ccncn2)cc1)N1CCN(S(=O)(=O)c2cc3cc(Cl)ccc3[nH]2)CC1 [Example 4, 1-(5-Chloroindol-2-ylsulphonyl)-4-[4-(4-pyrimidyl)benzoyl]piperazine]	229 to 230 °C	
O=C(c1ccc(-c2ccncc2)cc1)N1CCN(S(=O)(=O)c2cc3cc(Cl)ccc3[nH]2)CC1 [Example 3, 1-(5-chloroindol-2-ylsulphonyl)-4-[4-(4-pyridyl)benzoyl]piperazine]	185 to 188 °C	

— patent US6753331B1, “Heterocyclic derivatives which inhibit factor Xa” (AstraZeneca AB, priority 1998, dated 2004)
